Data from patent US12139499B2, “Heteroaryl compounds for treating Huntington's disease” (PTC THERAPEUTICS, INC., priority 2018, dated 2024).

Test system: Endogenous Huntingtin Protein
Experiment: Endogenous Huntingtin Protein Assay (ELISA-based MSD electrochemiluminescence)
Format: cell-based
Details: Table 1
In short: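 Sandwich MSD electrochemiluminescence immunoassay. Capture used MW1 (expanded polyglutamine) or MAB2166 antibody coated at 1 μg/mL overnight at 4 °C. Samples were bound overnight at 4 °C, then a rabbit monoclonal detection antibody and SULFO-TAG anti-rabbit, each at 0.25 μg/mL, were applied for 1 h at room temperature.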

Row | Compound | IC50 [nM]
1 | CN(c1nc2cnc(-c3cc(C#N)c4nn(C)cc4c3)cc2s1)C1CCNCC1 [Compound 214, 2-methyl-5-{2-[methyl(piperidin-4-yl)amino][1,3]thiazolo[4,5-c]pyridin-6-yl}-2H-indazole-7-carbonitrile] | ≤ 100
2 | Cc1cn2cc(-c3cc4sc(N(C)C5CCNCC5)nc4cn3)cc(F)c2n1 [Compound 215, 6-(8-fluoro-2-methylimidazo[1,2-a]pyridin-6-yl)-N-methyl-N-(piperidin-4-yl)[1,3]thiazolo[4,5-c]pyridin-2-amine] | ≤ 100
3 | CN(c1nc2cnc(-c3cc(F)c4nn(C)cc4c3)cc2s1)C1CCNCC1 [Compound 216, 6-(7-fluoro-2-methyl-2H-indazol-5-yl)-N-methyl-N-(piperidin-4-yl)[1,3]thiazolo[4,5-c]pyridin-2-amine] | 100 to 500
4 | Cc1cn2cc(-c3ncc4nc(N(C)C5CC6CCC(C5)N6)sc4n3)cc(F)c2n1 (stereo not drawn) [Compound 217, N-[(3-exo)-8-azabicyclo[3.2.1]oct-3-yl]-5-(8-fluoro-2-methylimidazo[1,2-a]pyridin-6-yl)-N-methyl[1,3]thiazolo[5,4-d]pyrimidin-2-amine] | ≤ 100
5 | CN(c1nc2cnc(-c3cc(F)c4nn(C)cc4c3)nc2s1)C1CC2CCC(C1)N2 (stereo not drawn) [Compound 218, N-[(3-exo)-8-azabicyclo[3.2.1]oct-3-yl]-5-(7-fluoro-2-methyl-2H-indazol-5-yl)-N-methyl[1,3]thiazolo[5,4-d]pyrimidin-2-amine] | 100 to 500
6 | Cc1cn2nc(-c3cc(F)c4nc(C5CCNCC5)sc4c3)cc(C(=O)O)c2n1 [Compound 219, 6-[4-fluoro-2-(piperidin-4-yl)-1,3-benzothiazol-6-yl]-2-methylimidazo[1,2-b]pyridazine-8-carboxylic acid] | 1000 to 3000
7 | COC(=O)Cc1cc(-c2cc(F)c3nc(C4CCNCC4)sc3c2)nn2cc(C)nc12 [Compound 220, methyl {6-[4-fluoro-2-(piperidin-4-yl)-1,3-benzothiazol-6-yl]-2-methylimidazo[1,2-b]pyridazin-8-yl}acetate] | ≤ 100
8 | Cc1cn2nc(-c3cc(F)c4nc(C5CCNCC5)sc4c3)cc(CC(=O)O)c2n1 [Compound 221, {6-[4-fluoro-2-(piperidin-4-yl)-1,3-benzothiazol-6-yl]-2-methylimidazo[1,2-b]pyridazin-8-yl]acetic acid] | ≤ 100
9 | Cc1cn2cc(-c3cc4sc(NC5CC(C)(C)NC(C)(C)C5)nc4cn3)cc(C#N)c2n1 [Compound 222, 2-methyl-6-{2-[(2,2,6,6-tetramethylpiperidin-4-yl)amino][1,3]thiazolo[4,5-c]pyridin-6-yl]imidazo[1,2-a]pyridine-8-carbonitrile] | ≤ 100
10 | Cc1cn2cc(-c3cc4sc(OC5CC6CCC(C5)N6)nc4cn3)cc(C#N)c2n1 (stereo not drawn) [Compound 223, 6-{2-[(3-exo)-8-azabicyclo[3.2.1]oct-3-yloxy][1,3]thiazolo[4,5-c]pyridin-6-yl}-2-methylimidazo[1,2-a]pyridine-8-carbonitrile] | 100 to 500
11 | Cc1cn2nc(-c3cc(F)c4nc(C5CCNCC5)sc4c3)cc(C(N)=O)c2n1 [Compound 224, 6-[4-fluoro-2-(piperidin-4-yl)-1,3-benzothiazol-6-yl]-2-methylimidazo[1,2-b]pyridazine-8-carboxamide] | ≤ 100
12 | Cc1cn2cc(-c3cc(F)c4nc(N(C)C5CCNCC5)sc4c3)cc2c(C)n1 [Compound 225, 6-(1,3-dimethylpyrrolo[1,2-a]pyrazin-7-yl)-4-fluoro-N-methyl-N-(piperidin-4-yl)-1,3-benzothiazol-2-amine] | ≤ 100
13 | Cc1cn2cc(-c3cc(F)c4nc(N(C)C5CCNCC5)sc4c3)cc(C#N)c2n1 [Compound 226, 6-{4-fluoro-2-[methyl(piperidin-4-yl)amino]-1,3-benzothiazol-6-yl}-2-methylimidazo[1,2-a]pyridine-8-carbonitrile] | ≤ 100
14 | Cc1cn2cc(-c3ncc4nc(N(C)C5C6CCC5CNC6)sc4n3)cc(F)c2n1 (stereo not drawn) [Compound 227, N-[(8-anti)-3-azabicyclo[3.2.1]oct-8-yl]-5-(8-fluoro-2-methylimidazo[1,2-a]pyridin-6-yl)-N-methyl[1,3]thiazolo[5,4-d]pyrimidin-2-amine] | 1000 to 3000
15 | Cc1cn2cc(-c3ncc4nc(N(C)C5C6CCC5CNC6)sc4n3)cc(C#N)c2n1 (stereo not drawn) [Compound 228, 6-{2-[(8-anti)-3-azabicyclo[3.2.1]oct-8-yl(methyl)amino][1,3]thiazolo[5,4-d]pyrimidin-5-yl}-2-methylimidazo[1,2-a]pyridine-8-carbonitrile] | 500 to 1000
16 | Cc1cn2cc(-c3cc(F)c4nc(C5CCNCC5)sc4c3)nc2c(C)n1 [Compound 229, 2-[4-fluoro-2-(piperidin-4-yl)-1,3-benzothiazol-6-yl]-6,8-dimethylimidazo[1,2-a]pyrazine] | ≤ 100

Row | Compound | IC50 [nM]
17 | Cc1cn2nc(-c3cc(F)c4nc(C5CCNCC5)sc4c3)cc(C#N)c2n1 [Compound 230, 6-[4-fluoro-2-(piperidin-4-yl)-1,3-benzothiazol-6-yl]-2-methylimidazo[1,2-b]pyridazine-8-carbonitrile] | ≤ 100
18 | Cc1cn2nc(-c3cc(F)c4nc(N(C)C5CCNCC5)sc4c3)cc(C#N)c2n1 [Compound 231, 6-{4-fluoro-2-[methyl(piperidin-4-yl)amino]-1,3-benzothiazol-6-yl}-2-methylimidazo[1,2-b]pyridazine-8-carbonitrile] | ≤ 100
19 | Cn1cc2cc(-c3cc4sc(NC5CC(C)(C)NC(C)(C)C5)nc4cn3)cc(F)c2n1 [Compound 232, 6-(7-fluoro-2-methyl-2H-indazol-5-yl)-N-(2,2,6,6-tetramethylpiperidin-4-yl)[1,3]thiazolo[4,5-c]pyridin-2-amine] | ≤ 100
20 | Cn1cc2cc(-c3cc4sc(NC5CC(C)(C)NC(C)(C)C5)nc4cn3)cc(C#N)c2n1 [Compound 233, 2-methyl-5-{2-[(2,2,6,6-tetramethylpiperidin-4-yl)amino][1,3]thiazolo[4,5-c]pyridin-6-yl}-2H-indazole-7-carbonitrile] | ≤ 100
21 | Cc1cn2cc(-c3cc4sc(NC5CC(C)(C)NC(C)(C)C5)nc4cn3)cc(F)c2n1 [Compound 234, 6-(8-fluoro-2-methylimidazo[1,2-a]pyridin-6-yl)-N-(2,2,6,6-tetramethylpiperidin-4-yl)[1,3]thiazolo[4,5-c]pyridin-2-amine] | ≤ 100
22 | Cc1cn2nc(-c3cc(F)c4nc(N(C)C5CC6CCC(C5)N6)sc4c3)cc(C#N)c2n1 (stereo not drawn) [Compound 235, 6-{2-[(3-exo)-8-azabicyclo[3.2.1]oct-3-yl(methyl)amino]-4-fluoro-1,3-benzothiazol-6-yl}-2-methylimidazo[1,2-b]pyridazine-8-carbonitrile] | ≤ 100
23 | Cc1cn2nc(-c3cc(F)c4nc(N(C)C5CC6CCC(C5)N6)sc4c3)cc(C(N)=O)c2n1 (stereo not drawn) [Compound 236, 6-{2-[(3-exo)-8-azabicyclo[3.2.1]oct-3-yl(methyl)amino]-4-fluoro-1,3-benzothiazol-6-yl}-2-methylimidazo[1,2-b]pyridazine-8-carboxamide] | ≤ 100
24 | CN(c1nc2c(F)cc(-c3ccc4nn(C)cc4n3)cc2s1)C1CC2CCC(C1)N2 (stereo not drawn) [Compound 237, N-[(3-exo)-8-azabicyclo[3.2.1]oct-3-yl]-4-fluoro-N-methyl-6-(2-methyl-2H-pyrazolo[4,3-b]pyridin-5-yl)-1,3-benzothiazol-2-amine] | 100 to 500
25 | CN(c1nc2cnc(-c3cc(C#N)c4nn(C)cc4c3)cc2s1)[C@@H]1C[C@H]2CC[C@@H](C1)N2C [Compound 238, 2-methyl-5-(2-{methyl[(3-exo)-8-methyl-8-azabicyclo[3.2.1]oct-3-yl]amino}[1,3]thiazolo[4,5-c]pyridin-6-yl)-2H-indazole-7-carbonitrile] | ≤ 100
26 | Cc1cn2cc(-c3cc4sc(N(C)[C@@H]5C[C@H]6CC[C@@H](C5)N6C)nc4cn3)cc(F)c2n1 [Compound 239, 6-(8-fluoro-2-methylimidazo[1,2-a]pyridin-6-yl)-N-methyl-N-[(3-exo)-8-methyl-8-azabicyclo[3.2.1]oct-3-yl][1,3]thiazolo[4,5-c]pyridin-2-amine] | 100 to 500
27 | Cc1cn2cc(-c3cc4sc(N(C)[C@@H]5C[C@H]6CC[C@@H](C5)N6C)nc4cn3)cc(C#N)c2n1 [Compound 240, 2-methyl-6-(2-{methyl[(3-exo)-8-methyl-8-azabicyclo[3.2.1]oct-3-yl]amino}[1,3]thiazolo[4,5-c]pyridin-6-yl)imidazo[1,2-a]pyridine-8-carbonitrile] | 100 to 500
28 | CN(c1nc2cnc(-c3cc(F)c4nn(C)cc4c3)cc2s1)[C@@H]1C[C@H]2CC[C@@H](C1)N2C [Compound 241, 6-(7-fluoro-2-methyl-2H-indazol-5-yl)-N-methyl-N-[(3-exo)-8-methyl-8-azabicyclo[3.2.1]oct-3-yl][1,3]thiazolo[4,5-c]pyridin-2-amine] | 100 to 500
29 | CCN(c1nc2cnc(-c3cc(C#N)c4nc(C)cn4c3)nc2s1)C1CC(C)(C)NC(C)(C)C1 [Compound 242, 6-{2-[ethyl(2,2,6,6-tetramethylpiperidin-4-yl)amino][1,3]thiazolo[5,4-d]pyrimidin-5-yl)-2-methylimidazo[1,2-a]pyridine-8-carbonitrile] | 100 to 500
30 | CCN(c1nc2cnc(-c3cc(F)c4nc(C)cn4c3)nc2s1)C1CC(C)(C)NC(C)(C)C1 [Compound 243, N-ethyl-5-(8-fluoro-2-methylimidazo[1,2-a]pyridin-6-yl)-N-(2,2,6,6-tetramethylpiperidin-4-yl)[1,3]thiazolo[5,4-d]pyrimidin-2-amine] | 100 to 500
31 | CN1[C@@H]2CC[C@H]1C[C@H](Nc1nc3cnc(-c4cc(C#N)c5nn(C)cc5c4)cc3s1)C2 [Compound 244, 2-methyl-5-(2-{[(3-exo)-8-methyl-8-azabicyclo[3.2.1]oct-3-yl]amino][1,3]thiazolo[4,5-c]pyridin-6-yl)-2H-indazole-7-carbonitrile] | 1000 to 3000
32 | Cc1cn2cc(-c3cc4sc(N[C@@H]5C[C@H]6CC[C@@H](C5)N6C)nc4cn3)cc(C#N)c2n1 [Compound 245, 2-methyl-6-(2-{[(3-exo)-8-methyl-8-azabicyclo[3.2.1]oct-3-yl]amino][1,3]thiazolo[4,5-c]pyridin-6-yl)imidazo[1,2-a]pyridine-8-carbonitrile] | 1000 to 3000
